In US8877741B2, “Pyrrolidine derivatives, pharmaceutical compositions and uses thereof” (Boehringer Ingelheim International GmbH, priority 2013, dated 2014):

target: human ACC2 (Homo sapiens (Human), UniProt O00763); assay: ACC2 assay, spectrophotometric 384 well assay (NADH-linked kinetic method); type: biochemical; conditions: human ACC2 construct lacking the 128 N-terminal amino acids; coupled lactate dehydrogenase/pyruvate kinase reaction, 340 nm, 25° C.
Experimental: Spectrophotometric 384 Well Assay
Malonyl CoA formation by acetyl CoA carboxylases is stoichometrically linked to the consumption of ATP. ACC2 activity is measured in a NADH-linked kinetic method measuring ADP generated during the ACC reaction using a coupled lactate dehydrogenase/pyruvate kinase reaction.
For biological testing, a human ACC2 construct which lacks the 128 amino acids at the N-terminus for increased solubility (nt 385-6966 in Genbank entry AJ575592) is cloned. The protein is then expressed in insect cells using a baculoviral expression system. Protein purification is performed by anion exchange.
All compounds are dissolved in dimethyl sulfoxide (DMSO) to a concentration of 10 mM.
The enzymatic reaction is then started by addition of a mixture of NADH, acetyl Coenzyme A (both 2000 μM f.c.) and ATP (500 uM f.c.). The decrease of the optical density (slope S) is then determined at 25° C. at a wavelength of 340 nm over 15 minutes in a spectrophotometric reader.
Each assay microtiter plate contains wells with vehicle instead of compound as controls for the non-inhibited enzyme (100% CTL; ‘HIGH’) and wells without acetyl-CoA as controls for non-specific NADH degradation (0% CTL; ‘LOW’).
The slope S is used for calculation of % CTL=(S(compound)−S(‘LOW’))/(S(‘HIGH’)−S(‘LOW’))*100.
For IC50 value determination, the sample slope in the presence of the test compound after subtraction of the low controls (S(compound)−S(‘LOW’)) are used.
An IC50 value is derived from the compound slopes at different dosages after subtraction of the low controls (S(compound)−S(‘LOW’)) by non-linear regression curve fitting (equation y=(A+((B−A)/(1+((C/x)^D))))).

Sequence of human ACC2 (O00763 129-2458): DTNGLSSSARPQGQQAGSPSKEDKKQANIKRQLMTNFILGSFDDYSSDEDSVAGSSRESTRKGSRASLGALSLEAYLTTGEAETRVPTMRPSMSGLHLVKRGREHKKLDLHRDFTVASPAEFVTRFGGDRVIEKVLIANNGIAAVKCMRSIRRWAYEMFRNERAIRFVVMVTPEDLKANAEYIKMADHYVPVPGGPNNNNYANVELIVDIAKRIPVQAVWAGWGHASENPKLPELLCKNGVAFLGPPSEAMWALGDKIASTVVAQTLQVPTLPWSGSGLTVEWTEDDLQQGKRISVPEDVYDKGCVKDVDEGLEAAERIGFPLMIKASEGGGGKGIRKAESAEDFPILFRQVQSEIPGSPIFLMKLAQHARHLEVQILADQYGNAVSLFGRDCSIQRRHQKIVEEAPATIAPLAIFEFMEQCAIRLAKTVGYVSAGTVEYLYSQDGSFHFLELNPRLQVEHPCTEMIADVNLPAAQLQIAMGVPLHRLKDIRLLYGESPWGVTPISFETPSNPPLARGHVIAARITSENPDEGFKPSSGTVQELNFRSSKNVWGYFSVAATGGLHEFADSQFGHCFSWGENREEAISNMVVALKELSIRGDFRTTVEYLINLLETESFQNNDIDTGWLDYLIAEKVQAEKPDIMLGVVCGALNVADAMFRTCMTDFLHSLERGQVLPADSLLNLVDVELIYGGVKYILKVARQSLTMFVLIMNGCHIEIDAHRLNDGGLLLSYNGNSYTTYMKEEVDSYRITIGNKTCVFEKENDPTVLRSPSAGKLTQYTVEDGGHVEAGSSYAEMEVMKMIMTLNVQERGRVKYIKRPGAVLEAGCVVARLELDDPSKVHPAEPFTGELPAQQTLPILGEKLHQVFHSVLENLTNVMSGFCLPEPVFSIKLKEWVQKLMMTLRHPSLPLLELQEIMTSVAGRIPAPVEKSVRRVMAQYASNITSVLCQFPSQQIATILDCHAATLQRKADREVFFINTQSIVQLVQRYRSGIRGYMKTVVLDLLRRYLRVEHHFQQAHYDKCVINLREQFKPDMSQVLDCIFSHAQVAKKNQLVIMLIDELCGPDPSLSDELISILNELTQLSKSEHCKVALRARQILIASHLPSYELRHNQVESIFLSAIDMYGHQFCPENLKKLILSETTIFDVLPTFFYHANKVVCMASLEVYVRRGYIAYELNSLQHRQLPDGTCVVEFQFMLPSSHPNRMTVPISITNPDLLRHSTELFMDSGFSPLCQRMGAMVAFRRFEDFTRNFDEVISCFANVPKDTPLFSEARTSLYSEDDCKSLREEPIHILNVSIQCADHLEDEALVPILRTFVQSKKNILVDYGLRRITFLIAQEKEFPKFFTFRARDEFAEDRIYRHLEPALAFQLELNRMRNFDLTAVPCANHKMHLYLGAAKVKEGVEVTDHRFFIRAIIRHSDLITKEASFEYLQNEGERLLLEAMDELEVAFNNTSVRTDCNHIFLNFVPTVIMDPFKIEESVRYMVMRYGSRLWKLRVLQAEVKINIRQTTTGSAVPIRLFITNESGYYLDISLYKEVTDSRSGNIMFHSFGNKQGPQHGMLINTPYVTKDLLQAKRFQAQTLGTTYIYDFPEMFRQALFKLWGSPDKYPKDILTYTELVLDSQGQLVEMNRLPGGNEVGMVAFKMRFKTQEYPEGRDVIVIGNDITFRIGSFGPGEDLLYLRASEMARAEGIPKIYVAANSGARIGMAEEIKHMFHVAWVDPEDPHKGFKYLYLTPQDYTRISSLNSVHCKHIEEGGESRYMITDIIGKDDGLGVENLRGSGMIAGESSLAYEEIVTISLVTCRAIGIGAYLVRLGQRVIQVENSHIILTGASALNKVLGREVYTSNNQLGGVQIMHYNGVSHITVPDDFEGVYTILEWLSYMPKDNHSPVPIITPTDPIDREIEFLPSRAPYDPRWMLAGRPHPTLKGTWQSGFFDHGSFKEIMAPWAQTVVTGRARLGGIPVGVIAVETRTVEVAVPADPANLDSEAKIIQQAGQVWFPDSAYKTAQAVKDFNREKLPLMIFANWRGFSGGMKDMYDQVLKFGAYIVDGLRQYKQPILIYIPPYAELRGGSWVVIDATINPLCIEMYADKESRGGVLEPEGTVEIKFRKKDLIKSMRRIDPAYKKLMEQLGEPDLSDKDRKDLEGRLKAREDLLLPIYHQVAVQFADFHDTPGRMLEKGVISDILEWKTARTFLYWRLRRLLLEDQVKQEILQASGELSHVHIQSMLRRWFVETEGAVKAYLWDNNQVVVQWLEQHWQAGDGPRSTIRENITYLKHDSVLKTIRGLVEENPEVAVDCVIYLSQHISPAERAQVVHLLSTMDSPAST

SMILES | IC50 [nM]
CC(=O)N[C@@H](C)c1ccc(O[C@@H]2CCN(c3ccc(OCC4CC4(F)F)cn3)C2)cc1 (stereo partly drawn) [Example 1.1, N—((1S)-1-(4-((3R)-1-(5-((2,2-Difluorocyclopropyl)methoxy)pyridin-2-yl)pyrrolidin-3-yloxy)phenyl)ethyl)acetamide] | 46
CCCOc1ccc(N2CCC(Oc3ccc([C@H](C)NC(C)=O)cc3)C2)nc1 (some centres unmarked) [Example 1.2] | 146
CC(=O)N[C@@H](C)c1ccc(OC2CCN(c3ccnc(OC(C)C)c3)C2)cc1 (some centres unmarked) [Example 1.3] | 134
CCCOc1ccc(N2CCC(Oc3ccc([C@H](C)NC(C)=O)cc3)C2)cn1 (some centres unmarked) [Example 1.4] | 193
CCOc1ccc(N2CCC(Oc3ccc([C@H](C)NC(C)=O)cc3)C2)cn1 (some centres unmarked) [Example 1.5] | 510
CCOc1ccc(N2CCC(Oc3ccc([C@H](C)NC(C)=O)cc3)C2)nc1 (some centres unmarked) [Example 1.6] | 306
CC(=O)N[C@@H](C)c1ccc(OC2CCN(c3ncc(OCC4CC4)cc3F)C2)cc1 (some centres unmarked) [Example 1.7] | 137
CC(=O)N[C@@H](C)c1ccc(OC2CCN(c3ccc(OCC(C)C)cn3)C2)cc1 (some centres unmarked) [Example 1.8] | 375
CCOc1cnc(N2CCC(Oc3ccc([C@H](C)NC(C)=O)cc3)C2)c(F)c1 (some centres unmarked) [Example 1.9] | 556
CC(=O)N[C@@H](C)c1ccc(OC2CCN(c3ccc(OC(C)C)nc3)C2)cc1 (some centres unmarked) [Example 1.10] | 832
CCCOc1cnc(N2CCC(Oc3ccc([C@H](C)NC(C)=O)cc3)C2)c(F)c1 (some centres unmarked) [Example 1.11] | 151
CCOc1cc(N2CCC(Oc3ccc([C@H](C)NC(C)=O)cc3)C2)ccn1 (some centres unmarked) [Example 1.12] | 265
CCCOc1ccc(N2CCC(Oc3ccc([C@H](C)NC(C)=O)cc3)C2)c(C#N)n1 (some centres unmarked) [Example 1.13] | 345
CC(=O)N[C@@H](C)c1ccc(OC2CCN(c3ccc(OCC4CC4)nc3)C2)cc1 (some centres unmarked) [Example 1.14] | 394
CC(=O)N[C@@H](C)c1ccc(OC2CCN(c3ccnc(OCC4CC4)c3)C2)cc1 (some centres unmarked) [Example 1.15] | 60
CCCOc1cc(N2CCC(Oc3ccc([C@H](C)NC(C)=O)cc3)C2)ccn1 (some centres unmarked) [Example 1.16] | 114
CC(=O)N[C@@H](C)c1ccc(OC2CCN(c3cccc(C)n3)C2)cc1 (some centres unmarked) [Example 1.18] | 167
CC(=O)N[C@@H](C)c1ccc(OC2CCN(c3ccnc(OCC4CC4(F)F)c3)C2)cc1 (some centres unmarked) [Example 1.19] | 54
CC(=O)N[C@@H](C)c1ccc(OC2CCN(c3ncc(OC4CCC4)cc3F)C2)cc1 (some centres unmarked) [Example 1.20] | 65
CC(=O)N[C@@H](C)c1ccc(OC2CCN(c3ccc(OC4CCC4)nc3)C2)cc1 (some centres unmarked) [Example 1.21] | 335
CC(=O)N[C@@H](C)c1ccc(OC2CCN(c3ncc(OC(C)C)cc3F)C2)cc1 (some centres unmarked) [Example 1.22] | 104
CC(=O)N[C@@H](C)c1ccc(OC2CCN(c3ncc(OCC4CC4(F)F)cc3F)C2)cc1 (some centres unmarked) [Example 1.23] | 115
CCOc1cc(N2CCC(Oc3ccc([C@H](C)NC(C)=O)cc3)C2)c(C)cn1 (some centres unmarked) [Example 1.24] | 447

SMILES | IC50 [nM]
CC(=O)N[C@@H](C)c1ccc(OC2CCN(c3cc(OCC4CC4)ncc3C)C2)cc1 (some centres unmarked) [Example 1.25] | 228
CC(=O)N[C@@H](C)c1ccc(OC2CCN(c3ccc(OC4CCC4)cn3)C2)cc1 (some centres unmarked) [Example 1.26] | 114
CC(=O)N[C@@H](C)c1ccc(OC2CCN(c3ccc(OC4CCCC4)cn3)C2)cc1 (some centres unmarked) [Example 1.27] | 70
CCC(C)Oc1ccc(N2CCC(Oc3ccc([C@H](C)NC(C)=O)cc3)C2)nc1 (some centres unmarked) [Example 1.28] | 245
CC(=O)N[C@@H](C)c1ccc(OC2CCN(c3ccc(OCCC(F)(F)F)cn3)C2)cc1 (some centres unmarked) [Example 1.29] | 130
CCOc1cc(N2CCC(Oc3ccc([C@H](C)NC(C)=O)cc3)C2)c(F)cn1 (some centres unmarked) [Example 1.30] | 117
CC(=O)N[C@@H](C)c1ccc(OC2CCN(c3ccc(OCCC4CC4)cn3)C2)cc1 (some centres unmarked) [Example 1.31] | 139
CC(=O)N[C@@H](C)c1ccc(OC2CCN(c3ncc(OC4CCCC4)cc3F)C2)cc1 (some centres unmarked) [Example 1.32] | 50
CC(=O)N[C@@H](C)c1ccc(OC2CCN(c3ncc(OCC(F)(F)F)cc3F)C2)cc1 (some centres unmarked) [Example 1.33] | 504
CC(=O)N[C@@H](C)c1ccc(OC2CCN(c3ncc(OCCC4CC4)cc3F)C2)cc1 (some centres unmarked) [Example 1.34] | 434
CC(=O)N[C@@H](C)c1ccc(OC2CCN(c3ccnc(OCC4CC4)c3)C2)cc1 (some centres unmarked) [Example 1.35] | 414
CC(=O)N[C@@H](C)c1ccc(OC2CCN(c3nc(C(F)(F)F)ccc3F)C2)cc1 (some centres unmarked) [Example 1.36] | 168
CCCOc1ccc(N2CCC(Oc3ccc([C@H](C)NC(C)=O)cc3)C2)c(C)n1 (some centres unmarked) [Example 1.37] | 360
CC(=O)N[C@@H](C)c1ccc(OC2CCN(c3cccc(C4CC4)n3)C2)cc1 (some centres unmarked) [Example 1.38] | 95
CCCOc1cnc(N2CCC(Oc3ccc([C@H](C)NC(C)=O)cc3)C2)c(C)c1 (some centres unmarked) [Example 1.39] | 379
CC(=O)N[C@@H](C)c1ccc(OC2CCN(c3cnc(OCC4CC4(F)F)cc3C)C2)cc1 (some centres unmarked) [Example 1.40] | 775
CC(=O)N[C@@H](C)c1ccc(OC2CCN(c3ncc(OCC4CC4)cc3C)C2)cc1 (some centres unmarked) [Example 1.41] | 154
CC(=O)N[C@@H](C)c1ccc(OC2CCN(c3ccc(OCC4CC4(F)F)nc3)C2)cc1 (some centres unmarked) [Example 1.42] | 219
CC(=O)Nc1nc(C)c(C(=O)N[C@@H](C)c2ccc(O[C@@H]3CCN(c4ccnc(OCC5CC5)c4)C3)cc2)s1 [Example 1.43] | 59
CC(=O)N[C@@H](C)c1ccc(OC2CCN(c3nc(C)ccc3F)C2)cc1 (some centres unmarked) [Example 1.44] | 256
CC(=O)Nc1nc(C)c(C(=O)N[C@@H](C)c2ccc(O[C@@H]3CCN(c4cccc(C(F)(F)F)n4)C3)cc2)s1 [Example 1.45] | 64
CCCOc1ccc(N2CC[C@@H](Oc3ccc([C@H](C)NC(=O)c4sc(NC(C)=O)nc4C)cc3)C2)cn1 [Example 1.46] | 149
CCOc1cc(N2CC[C@@H](Oc3ccc([C@H](C)NC(=O)c4sc(NC(C)=O)nc4C)cc3)C2)ccn1 [Example 1.47] | 120

SMILES | IC50 [nM]
CCCOc1cnc(N2CC[C@@H](Oc3ccc([C@H](C)NC(=O)c4sc(NC(C)=O)nc4C)cc3)C2)c(F)c1 [Example 1.48] | 352
CC(=O)Nc1nc(C)c(C(=O)N[C@@H](C)c2ccc(O[C@@H]3CCN(c4ccnc(OC(C)C)c4)C3)cc2)s1 [Example 1.49] | 179
CCCOc1ccc(N2CC[C@@H](Oc3ccc([C@H](C)NC(=O)c4sc(NC(C)=O)nc4C)cc3)C2)nc1 [Example 1.50] | 170
CCCOc1cc(C)c(N2CCC(Oc3ccc([C@H](C)NC(C)=O)cc3)C2)cn1 (some centres unmarked) [Example 1.51] | 401
CCOc1cnc(N2CCC(Oc3ccc([C@H](C)NC(C)=O)cc3)C2)c(C)c1 (some centres unmarked) [Example 1.52] | 474
C[C@H](NC(=O)N(C)C)c1ccc(OC2CCN(c3ccnc(OCC4CC4)c3)C2)cc1 (some centres unmarked) [Example 1.53] | 85
C[C@H](NC(=O)N(C)C)c1ccc(OC2CCN(c3ccc(OCC4CC4(F)F)cn3)C2)cc1 (some centres unmarked) [Example 1.54] | 140
C[C@H](NC(=O)N(C)C)c1ccc(OC2CCN(c3ncc(OCC4CC4(F)F)cc3F)C2)cc1 (some centres unmarked) [Example 1.55] | 154
Cc1cnc(OCC2CC2)cc1N1CCC(Oc2ccc([C@H](C)NC(=O)N(C)C)cc2)C1 (some centres unmarked) [Example 1.56] | 585
COc1cccc(N2CCC(Oc3ccc([C@H](C)NC(C)=O)cc3)C2)n1 (some centres unmarked) [Example 1.57] | 678
C[C@H](NC(=O)N(C)C)c1ccc(OC2CCN(c3ccc(F)c(C(F)(F)F)n3)C2)cc1 (some centres unmarked) [Example 1.58] | 55
CC(=O)N[C@@H](C)c1ccc(OC2CCN(c3cccc(C(C)(C)C)n3)C2)cc1 (some centres unmarked) [Example 1.59] | 150
CCc1cccc(N2CCC(Oc3ccc([C@H](C)NC(C)=O)cc3)C2)n1 (some centres unmarked) [Example 1.60] | 202
CCOc1cccc(N2CCC(Oc3ccc([C@H](C)NC(C)=O)cc3)C2)n1 (some centres unmarked) [Example 1.62] | 802
CC(=O)N[C@@H](C)c1ccc(OC2CCN(c3cccc(C(C)C)n3)C2)cc1 (some centres unmarked) [Example 1.63] | 55
CC(=O)N[C@@H](C)c1ccc(OC2CCN(c3cccc(C(F)F)n3)C2)cc1 (some centres unmarked) [Example 1.64] | 154
CC(=O)N[C@@H](C)c1ccc(OC2CCN(c3ccc(F)c(C)n3)C2)cc1 (some centres unmarked) [Example 1.65] | 107
CC(=O)N[C@@H](C)c1ccc(OC2CCN(c3ccc(OC4CC4)cn3)C2)cc1 (some centres unmarked) [Example 1.66] | 384
CC(=O)N[C@@H](C)c1ccc(OC2CCN(c3ncc(OC4CC4)cc3F)C2)cc1 (some centres unmarked) [Example 1.67] | 463
CC(=O)N[C@@H](C)c1ccc(OC2CCN(c3ccnc(Oc4cccnc4)c3)C2)cc1 (some centres unmarked) [Example 1.68] | 354
CSc1ccc(N2CCC(Oc3ccc([C@H](C)NC(C)=O)cc3)C2)nc1 (some centres unmarked) [Example 1.69] | 387
CC(=O)N[C@@H](C)c1ccc(OC2CCN(c3ccc(C4CC4)cn3)C2)cc1 (some centres unmarked) [Example 1.70] | 722
